# Reference: patent US11912701B2, “Protein kinase inhibitors for promoting liver regeneration or reducing or preventing hepatocyte death” (HEPAREGENIX GMBH, priority 2018, dated 2024)
# Columns and labels:
# Type in all cases: biochemical
# [1] = target: T1, MKK7 (Homo sapiens, UniProt O14733); assay: 33PanQinase enzyme assay, MKK7; design: purchased ProQinase GmbH, Freiburg, Germany (33PanQinase Assay Service); settings: ratio IC50(MKK7)/IC50(MKK4)
# T1 sequence (O14733 1-419): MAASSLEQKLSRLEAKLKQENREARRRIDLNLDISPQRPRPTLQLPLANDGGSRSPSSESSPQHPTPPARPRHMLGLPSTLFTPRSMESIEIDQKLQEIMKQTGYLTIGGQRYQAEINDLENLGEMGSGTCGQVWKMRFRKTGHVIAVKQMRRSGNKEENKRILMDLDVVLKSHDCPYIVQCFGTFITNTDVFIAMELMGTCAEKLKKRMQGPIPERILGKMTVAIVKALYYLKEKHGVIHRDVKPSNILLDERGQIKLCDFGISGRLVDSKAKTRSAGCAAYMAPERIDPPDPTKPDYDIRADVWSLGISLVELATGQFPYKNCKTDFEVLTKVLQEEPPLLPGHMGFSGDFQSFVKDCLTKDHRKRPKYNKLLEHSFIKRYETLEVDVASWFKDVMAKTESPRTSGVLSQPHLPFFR
# Summary of the method: (§1)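 33Pi incorporation, read by microplate scintillation counting, measured kinase activity after 60 min at 30 °C. Reactions were quenched with 2% (v/v) H3PO4 and washed with 0.9% NaCl. IC50 derived by least-squares fitting; single doses reported as % residual activity.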
# [2] = target: T2, MKK4 (Homo sapiens, UniProt P45985); assay: 33PanQinase enzyme assay, MKK4; settings: assay 'IC50'; read-out: Potency MKK4 (IC50)
# T2 construct: purchased ProQinase GmbH, Freiburg, Germany (33PanQinase Assay Service)
# T2 sequence (P45985 1-399): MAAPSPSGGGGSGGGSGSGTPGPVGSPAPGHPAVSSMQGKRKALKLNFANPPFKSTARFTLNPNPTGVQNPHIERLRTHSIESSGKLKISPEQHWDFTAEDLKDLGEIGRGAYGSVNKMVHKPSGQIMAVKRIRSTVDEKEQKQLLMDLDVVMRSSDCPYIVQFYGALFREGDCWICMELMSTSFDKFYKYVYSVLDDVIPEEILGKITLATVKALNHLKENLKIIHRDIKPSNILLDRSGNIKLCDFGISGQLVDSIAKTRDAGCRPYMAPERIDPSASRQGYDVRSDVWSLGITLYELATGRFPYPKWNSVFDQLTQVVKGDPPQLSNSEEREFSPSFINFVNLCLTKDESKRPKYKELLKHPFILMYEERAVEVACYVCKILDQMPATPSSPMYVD
# Summary of the method: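 Inhibition measured as 33Pi transfer to substrate after a 60-min, 30 °C reaction, acid-stopped and scintillation-counted.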
# [3] = target: T3, BRaf (Homo sapiens, UniProt P15056); assay: 33PanQinase enzyme assay, BRaf; settings: ratio IC50(BRaf)/IC50(MKK4)
# T3 construct: purchased ProQinase GmbH, Freiburg, Germany (33PanQinase Assay Service)
# Summary of the method: as §1
# [4] = target: JNK1 (Homo sapiens, UniProt P45983); assay: 33PanQinase enzyme assay, JNK1; design: purchased ProQinase GmbH, Freiburg, Germany (33PanQinase Assay Service); settings: ratio IC50(JNK1)/IC50(MKK4)
# Summary of the method: as §1
# JNK1, sequence (P45983 whole entry): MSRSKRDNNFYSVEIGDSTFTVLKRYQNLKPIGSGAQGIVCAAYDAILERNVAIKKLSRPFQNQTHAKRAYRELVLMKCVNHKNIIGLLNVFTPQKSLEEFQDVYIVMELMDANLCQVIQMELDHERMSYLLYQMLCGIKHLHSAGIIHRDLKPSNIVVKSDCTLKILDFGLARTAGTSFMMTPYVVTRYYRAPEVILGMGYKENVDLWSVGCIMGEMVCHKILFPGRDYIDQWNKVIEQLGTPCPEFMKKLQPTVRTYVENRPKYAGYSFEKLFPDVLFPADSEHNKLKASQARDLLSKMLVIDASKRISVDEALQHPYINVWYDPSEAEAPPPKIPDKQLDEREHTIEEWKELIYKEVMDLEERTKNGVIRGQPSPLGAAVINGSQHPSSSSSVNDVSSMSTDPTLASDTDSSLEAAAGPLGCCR
# T3 sequence (P15056 whole entry, species assumed): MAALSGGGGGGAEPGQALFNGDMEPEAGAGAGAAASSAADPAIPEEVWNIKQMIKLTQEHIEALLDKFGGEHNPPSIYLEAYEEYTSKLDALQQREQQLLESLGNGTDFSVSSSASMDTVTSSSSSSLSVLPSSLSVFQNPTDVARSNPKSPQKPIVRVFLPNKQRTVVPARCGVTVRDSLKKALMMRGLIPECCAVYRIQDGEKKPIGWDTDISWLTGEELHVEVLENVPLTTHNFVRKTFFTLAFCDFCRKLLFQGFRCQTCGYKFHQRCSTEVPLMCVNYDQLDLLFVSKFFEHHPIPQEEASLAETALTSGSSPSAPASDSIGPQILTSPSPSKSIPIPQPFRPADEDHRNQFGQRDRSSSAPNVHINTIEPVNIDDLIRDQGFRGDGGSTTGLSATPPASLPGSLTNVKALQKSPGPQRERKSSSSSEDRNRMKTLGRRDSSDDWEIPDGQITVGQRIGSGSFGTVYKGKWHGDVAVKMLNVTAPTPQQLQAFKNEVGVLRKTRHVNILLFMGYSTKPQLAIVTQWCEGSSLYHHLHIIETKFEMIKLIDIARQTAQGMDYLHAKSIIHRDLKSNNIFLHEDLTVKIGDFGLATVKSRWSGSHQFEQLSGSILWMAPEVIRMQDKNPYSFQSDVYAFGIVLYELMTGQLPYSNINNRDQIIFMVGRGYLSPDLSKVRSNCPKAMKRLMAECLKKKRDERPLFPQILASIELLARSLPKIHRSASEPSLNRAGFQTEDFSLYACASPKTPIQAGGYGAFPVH
SMILES,"Selectivity IVIKK7, IC50(off-target)/IC50(MKK4) [1]",IC50 [2] [nM],"Selectivity Braf, IC50(off-target)/IC50(MKK4) [3]","Selectivity JNK1, IC50(off-target)/IC50(MKK4) [4]"
"CCCS(=O)(=O)Nc1c(F)ccc(C(=O)c2c[nH]c3ncc(-c4cnc(SC)nc4)cc23)c1F [Example 195, N-(2,6-difluoro-3-(5-(2-(methylthio)pyrimidin-5-yl)-1H-pyrrolo[2,3-b]pyridine-3-carbonyl)phenyl)propane-1-sulfonamide]",+++ (IC50(off-target)/IC50(MKK4) > 100),< 100,+++ (IC50(off-target)/IC50(MKK4) > 100),+++ (IC50(off-target)/IC50(MKK4) > 100)
"CCCS(=O)(=O)Nc1c(F)ccc(C(=O)c2c[nH]c3ncc(-c4cnc(C(C)(C)C)nc4)cc23)c1F [Example 196, N-(3-(5-(2-(tert-butyl)pyrimidin-5-yl)-1H-pyrrolo[2,3-b]pyridine-3-carbonyl)-2,6-difluorophenyl)propane-1-sulfonamide]",+++ (IC50(off-target)/IC50(MKK4) > 100),< 100,+++ (IC50(off-target)/IC50(MKK4) > 100),+++ (IC50(off-target)/IC50(MKK4) > 100)
"CCCS(=O)(=O)Nc1c(F)ccc(C(=O)c2c[nH]c3ncc(-c4cnc(SC(C)C)nc4)cc23)c1F [Example 197, N-(2,6-difluoro-3-(5-(2-(isopropylthio)pyrimidin-5-yl)-1H-pyrrolo[2,3-b]pyridine-3-carbonyl)phenyl)propane-1-sulfonamide]",+++ (IC50(off-target)/IC50(MKK4) > 100),100 to 1000,+++ (IC50(off-target)/IC50(MKK4) > 100),++ (100 ≥ IC50(off-target)/IC50(MKK4) > 10)
"CCCS(=O)(=O)Nc1c(F)ccc(C(=O)c2c[nH]c3ncc(-c4cnc(N5CCN(CCO)CC5)nc4)cc23)c1F [Example 198, N-(2,6-difluoro-3-(5-(2-(4-(2-hydroxyethyl)piperazin-1-yl)pyrimidin-5-yl)-1H-pyrrolo[2,3-b]pyridine-3-carbonyl)phenyl)propane-1-sulfonamide]",+++ (IC50(off-target)/IC50(MKK4) > 100),100 to 1000,++ (100 ≥ IC50(off-target)/IC50(MKK4) > 10),++ (100 ≥ IC50(off-target)/IC50(MKK4) > 10)
"CCCS(=O)(=O)Nc1c(F)ccc(C(=O)c2c[nH]c3ncc(-c4cnc(N5CCC5)nc4)cc23)c1F [Example 199, N-(3-(5-(2-(azetidin-1-yl)pyrimidin-5-yl)-1H-pyrrolo[2,3-b]pyridine-3-carbonyl)-2,6-difluorophenyl)propane-1-sulfonamide]",+++ (IC50(off-target)/IC50(MKK4) > 100),< 100,++ (100 ≥ IC50(off-target)/IC50(MKK4) > 10),++ (100 ≥ IC50(off-target)/IC50(MKK4) > 10)
"CCCS(=O)(=O)Nc1c(F)ccc(C(=O)c2c[nH]c3ncc(-c4cnc(OCCCN(C)C)nc4)cc23)c1F [Example 200, N-(3-(5-(2-(3-(dimethylamino)propoxy)pyrimidin-5-yl)-1H-pyrrolo[2,3-b]pyridine-3-carbonyl)-2,6-difluorophenyl)propane-1-sulfonamide]",+++ (IC50(off-target)/IC50(MKK4) > 100),1000 to 10000,+ (10 ≥ IC50(off-target)/IC50(MKK4) > 3),+ (10 ≥ IC50(off-target)/IC50(MKK4) > 3)
"CCCS(=O)(=O)Nc1c(F)ccc(C(=O)c2c[nH]c3ncc(-c4cnc(NCCO)nc4)cc23)c1F [Example 201, N-(2,6-difluoro-3-(5-(2-((2-hydroxyethyl)amino)pyrimidin-5-yl)-1H-pyrrolo[2,3-b]pyridine-3-carbonyl)phenyl)propane-1-sulfonamide]",+++ (IC50(off-target)/IC50(MKK4) > 100),< 100,+++ (IC50(off-target)/IC50(MKK4) > 100),+++ (IC50(off-target)/IC50(MKK4) > 100)
"CCCS(=O)(=O)Nc1c(F)ccc(C(=O)c2c[nH]c3ncc(-c4cnc(N(C)CCO)nc4)cc23)c1F [Example 202, N-(2,6-difluoro-3-(5-(2-((2-hydroxyethyl)(methyl)amino)pyrimidin-5-yl)-1H-pyrrolo[2,3-b]pyridine-3-carbonyl)phenyl)propane-1-sulfonamide]",+++ (IC50(off-target)/IC50(MKK4) > 100),< 100,++ (100 ≥ IC50(off-target)/IC50(MKK4) > 10),+++ (IC50(off-target)/IC50(MKK4) > 100)
"CCCS(=O)(=O)Nc1c(F)ccc(C(=O)c2c[nH]c3ncc(-c4cnc(N5CC[C@H](O)C5)nc4)cc23)c1F [Example 203, (S)-N-(2,6-difluoro-3-(5-(2-(3-hydroxypyrrolidin-1-yl)pyrimidin-5-yl)-1H-pyrrolo[2,3-b]pyridine-3-carbonyl)phenyl)propane-1-sulfonamide]",+++ (IC50(off-target)/IC50(MKK4) > 100),< 100,++ (100 ≥ IC50(off-target)/IC50(MKK4) > 10),+++ (IC50(off-target)/IC50(MKK4) > 100)
"CCCS(=O)(=O)Nc1c(F)ccc(C(=O)c2c[nH]c3ncc(-c4cnc(N5CC[C@@H](O)C5)nc4)cc23)c1F [Example 204, (R)-N-(2,6-difluoro-3-(5-(2-(3-hydroxypyrrolidin-1-yl)pyrimidin-5-yl)-1H-pyrrolo[2,3-b]pyridine-3-carbonyl)phenyl)propane-1-sulfonamide]",+++ (IC50(off-target)/IC50(MKK4) > 100),100 to 1000,++ (100 ≥ IC50(off-target)/IC50(MKK4) > 10),+++ (IC50(off-target)/IC50(MKK4) > 100)
"CCCS(=O)(=O)Nc1c(F)ccc(C(=O)c2c[nH]c3ncc(-c4cnc(N5CC(O)C5)nc4)cc23)c1F [Example 205, N-(2,6-difluoro-3-(5-(2-(3-hydroxyazetidin-1-yl)pyrimidin-5-yl)-1H-pyrrolo[2,3-b]pyridine-3-carbonyl)phenyl)propane-1-sulfonamide]",+++ (IC50(off-target)/IC50(MKK4) > 100),100 to 1000,++ (100 ≥ IC50(off-target)/IC50(MKK4) > 10),++ (100 ≥ IC50(off-target)/IC50(MKK4) > 10)
"CCCS(=O)(=O)Nc1c(F)ccc(C(=O)c2c[nH]c3ncc(-c4cnc(CC)nc4)cc23)c1F [Example 206, N-(3-(5-(2-ethylpyrimidin-5-yl)-1H-pyrrolo[2,3-b]pyridine-3-carbonyl)-2,6-difluorophenyl)propane-1-sulfonamide]",+++ (IC50(off-target)/IC50(MKK4) > 100),< 100,+++ (IC50(off-target)/IC50(MKK4) > 100),+++ (IC50(off-target)/IC50(MKK4) > 100)
"CCCS(=O)(=O)Nc1c(F)ccc(C(=O)c2c[nH]c3ncc(-c4cnc(CF)nc4)cc23)c1F [Example 207, N-(2,6-difluoro-3-(5-(2-(fluoromethyl)pyrimidin-5-yl)-1H-pyrrolo[2,3-b]pyridine-3-carbonyl)phenyl)propane-1-sulfonamide]",+++ (IC50(off-target)/IC50(MKK4) > 100),100 to 1000,+++ (IC50(off-target)/IC50(MKK4) > 100),++ (100 ≥ IC50(off-target)/IC50(MKK4) > 10)
